Assay results from patent publication EP4755890A1, “OXO-TRICYCLIC DERIVATIVE AND PHARMACEUTICAL USE THEREOF” (Haisco Pharmaceutical Group Co., Ltd., priority 2023, dated 2025).

Assays:
SW48 cells = test: SW48 cell proliferation inhibition assay (CellTiter-Glo); assay type: cell-based; details: Homo sapiens, 96 h, 4 days, read-out: Inhibitory activity against SW48 cell proliferation IC50
Protocol: (§1) The culture conditions for SW48 cells were as follows: Leibovitz L15 + 10% FBS + 1% penicillin-streptomycin, and the cells were cultured in an incubator without CO2 at 37°C. On the first day, the SW48 cells in the exponential growth phase were collected and plated in 96-well cell culture plates at a density of 1000 cells/well (180 µL/well). The plates were cultured overnight in an incubator without CO2 at 37°C. T0 wells were plated simultaneously during the plating process. The next day, 20 µL of compounds at different concentrations were added to each well (nine compound concentration gradients, one DMSO well, and one blank well; each compound concentration was plated in triplicate), and the final concentration of DMSO in each well was 0.1%. The plates were cultured in an incubator without CO2 at 37°C for 4 days. On the same day of compound addition, the T0 plate was detected using the CellTiter-Glo Kit, and the detected value was recorded as RLU0. After the culture was completed, 100 µL of detection solution (Cell Viability Assay, Promega) was added to each well. The plates were incubated at room temperature for 10 minutes with slow shaking. The chemiluminescence reading was read using a BMG microplate reader (PHERAstar FSX). The results were processed according to Formula (5) to calculate the proliferation inhibition rate of compounds at each concentration. Curve fitting was performed via a four-parameter logistic model using GraphPad Prism software, and the GI50 value (the concentration of the compound when the proliferation inhibition rate was 50%) was calculated. In the formula, RLUcompound is the readout of the drug-treated group, RLUcontrol is the average value of the compound vehicle control group, and RLUBlank is the average value of the blank control group. [formula] Table 3. Results of inhibitory activity of test compounds against cell proliferation

[1] = target: T1, WRN protein (AA N517-P1238, ICE, Cat. S2212T-H56HZ) (Homo sapiens, UniProt Q14191); test: Assay for WRN helicase activity (FORKF dsDNA unwinding, fluorescence); assay type: biochemical; details: inhibition of WRN helicase activity; 10 nM WRN, 10 nM FORKF, 2 mM ATP
T1 construct: WRN protein (AA N517-P1238, ICE, Cat. S2212T-H56HZ); purchased ICE S2212T-H56HZ
Protocol: The assay buffer working solution prepared with RNAase-free water was as follows: 25 mM Tris (pH 7.5), 2 mM MgCl2, 50 mM NaCl, 0.02% BSA, 0.01% Tween, and 1 mM DTT. WRN protein (AA N517-P1238, ICE, Cat. S2212T-H56HZ) was obtained through protein expression and purification in vitro. Two single-stranded DNAs were synthesized: […]-BHQ2 (quencher), and (fluorophore) TAMRA-[…]. dsDNA (FORKF) was obtained via annealing of the two single-stranded DNAs. When the WRN protein bound to FORKF, the dsDNA was unwound, exposing the fluorophore, thereby generating fluorescence. 2 µL of compounds at different concentrations and 4 µL of WRN protein were added to a 384-well black plate (Greiner, Cat#784075). The plate was pre-incubated at room temperature for 20 minutes. 2 µL each of ATP and the FORKF substrate were added. The working concentrations of the WRN protein, FORKF, and ATP were 10 nM, 10 nM, and 2 mM, respectively. The plate was incubated at room temperature for 20 minutes. After the incubation was completed, the fluorescence value was read at Ex 540 nm/Em 590 nm using a BMG microplate reader (PHERAstar FSX).
(§2) The inhibition rate was calculated according to Formula 2, where RLUsample is the readout of the compound well, RLUmax is the readout of the DMSO control well, and RLUmin is the readout of the control well without the WRN protein. Curve fitting was performed via a four-parameter logistic model using GraphPad Prism software, and the IC50 value (the concentration of the compound when the inhibition rate was 50%) was calculated. Inhibition% = (1−(RLUsample−RLUmin)/(RLUmax−RLUmin)) × 100% [formula] Table 2. Results of inhibitory activity of test compounds against WRN helicase activity

[2] = target: T2, WRN protein (AA N517-P1238, ICE) (Homo sapiens, UniProt Q14191); test: Assay for ATPase activity of WRN helicase (ADP-Glo); assay type: biochemical; details: inhibition of ATPase activity of WRN helicase; 0.3 nM WRN, 0.2 nM DNA substrate, 10 µM ATP
T2 construct: WRN protein (AA N517-P1238, ICE); purchased ICE
Protocol: The assay buffer working solution was as follows: 30 mM Tris pH 7.5 + 0.02% BSA + 2 mM MgCl2 + 50 mM NaCl + 0.1% Pluronic® F127 + 1 mM DTT. WRN protein (AA N517-P1238, ICE) was obtained through protein expression and purification in vitro. A single-stranded DNA substrate ([…]) was synthesized in vitro. 1 µL each of compounds at different concentrations, the WRN protein, and the DNA substrate, together with 2 µL of ATP, were added to a 384-well white plate. The working concentrations of the WRN protein, the DNA substrate, and the ATP were 0.3 nM, 0.2 nM, and 10 µM, respectively. The plate was incubated at room temperature for 20 minutes. After the incubation was completed, the detection was performed in accordance with the instructions of the ADP-Glo Assay Kit (Promega), and the chemiluminescence value was read.
as §2, with “1,” for “2,”, “model (log(inhibitor) vs. response -- Variable slope)” for “model”, “value” for “value (the concentration of the compound when the inhibition rate was 50%)”, “1.” for “2.”, “against ATPase activity of” for “against”, “helicase” for “helicase activity”

[3] = Mouse pharmacokinetic assay; assay type: in vivo, Balb/c mice; details: po, mouse plasma, i.g. (10 mg/kg)
Protocol: 4.1. Experimental animals: Male Balb/c mice, about 22 g, 6-8 weeks old, 6 mice/compound. The animals were purchased from CHENGDU DOSSY EXPERIMENTAL ANIMALS CO., LTD.
4.2. Experimental design: On the day of the experiment, the Balb/c mice were randomly grouped according to their body weights. The animals were fasted with water available for 12-14 h one day before the administration, and were fed 4 h after the administration. Table 4. Administration information
Vehicle for intravenous administration: 5% DMA + 5% Solutol + 90% Saline; and vehicle for intragastric administration: 5% DMSO + 95% (20% SBE-β-CD in Saline)
Before and after the administration, 0.03 ml of blood was taken from the orbit under isoflurane anesthesia and placed in an EDTAK2 centrifuge tube. The tube was centrifuged at 5000 rpm at 4°C for 10 min, and plasma was collected. The blood collection time points for the intravenous administration group and intragastric administration group were as follows: 0, 2 min, 5 min, 15 min, 30 min, 1 h, 2 h, 4 h, and 7 h. Before analysis and detection, all samples were stored at - 80°C. Table 5. Pharmacokinetic parameters of test compounds in mouse plasma

HT-29 cells = test: HT-29 cell proliferation inhibition assay (CellTiter-Glo); assay type: cell-based; details: Homo sapiens, 96 h, 4 days, read-out: Inhibitory activity against HT-29 cell proliferation IC50
Protocol: as §1, with “HT-29” for “SW48”, “DMEM” for “Leibovitz L15”, “with 5%” for “without”, “(4)” for “(5)”, “[formula]” for “[formula] Table 3. Results of inhibitory activity of test compounds against cell proliferation”

[4] = Beagle dog pharmacokinetic assay; assay type: in vivo, Beagle dogs; details: male, po; Beagle dog plasma, i.g. (3 mg/kg)
Protocol: 7.1. Experimental animals: Male Beagle dogs, about 8-13 kg, 6 Beagle dogs/compound.
7.2. Experimental method: On the day of the experiment, the Beagle dogs were randomly grouped according to their body weights. The animals were fasted with water available for 14-18 h one day before the administration, and were fed 4 h after the administration. The animals were administered according to Table 6. Table 6. Administration information
Note: Vehicle for intravenous administration: 5% DMA + 5% Solutol + 90% Saline; and vehicle for intragastric administration: 5% DMSO + 95% (20% SBE-β-CD in Saline) (DMA: dimethylacetamide; Solutol: polyethylene glycol-15-hydroxystearate; Saline: normal saline; and MC: methylcellulose)
Before and after the administration, 1 ml of blood was taken from the jugular veins or limb veins and placed in an EDTAK2 centrifuge tube. The tube was centrifuged at 5000 rpm at 4°C for 10 min, and plasma was collected. The blood collection time points for the intravenous administration group and intragastric administration group were as follows: 0, 5 min, 15 min, 30 min, 1 h, 2 h, 4 h, 6 h, 8 h, 10 h, 12 h, 24 h, and 48 h. Before analysis and detection, all samples were stored at -80°C. The samples were analyzed quantitatively by LC-MS/MS. Table 7. Pharmacokinetic parameters of test compounds in Beagle dog plasma

T1 sequence (Q14191 517-1238, stated change not applied): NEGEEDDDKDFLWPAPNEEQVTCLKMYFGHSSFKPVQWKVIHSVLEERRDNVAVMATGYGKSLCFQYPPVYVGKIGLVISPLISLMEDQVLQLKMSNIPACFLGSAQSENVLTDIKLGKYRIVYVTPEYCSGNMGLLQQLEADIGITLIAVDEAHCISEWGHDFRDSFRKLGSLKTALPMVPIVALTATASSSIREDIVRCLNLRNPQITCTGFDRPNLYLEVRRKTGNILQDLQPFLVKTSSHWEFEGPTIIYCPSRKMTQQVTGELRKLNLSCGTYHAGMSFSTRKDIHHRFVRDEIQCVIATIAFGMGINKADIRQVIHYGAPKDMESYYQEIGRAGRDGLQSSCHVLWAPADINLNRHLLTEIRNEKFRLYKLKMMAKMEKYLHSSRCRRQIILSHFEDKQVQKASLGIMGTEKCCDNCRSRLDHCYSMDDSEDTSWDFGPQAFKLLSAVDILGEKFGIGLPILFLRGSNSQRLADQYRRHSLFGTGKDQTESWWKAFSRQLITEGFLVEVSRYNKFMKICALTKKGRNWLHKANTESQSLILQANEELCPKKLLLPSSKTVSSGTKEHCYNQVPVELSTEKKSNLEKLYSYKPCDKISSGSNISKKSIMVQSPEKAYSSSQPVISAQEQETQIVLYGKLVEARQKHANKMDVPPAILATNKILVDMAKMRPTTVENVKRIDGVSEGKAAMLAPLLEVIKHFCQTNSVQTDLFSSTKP
T2 sequence (Q14191 517-1238): as the sequence (Q14191 517-1238, stated change not applied) above

Cc1ncnc(C(=O)N2CCN(c3c4n(c5nc(C6=CCOCC6)nn5c3=O)C(C(=O)Nc3ccc(C(F)(F)F)cc3Cl)CCC4)CC2)c1O (racemic) [Compound 1]
IC50 (SW48 cells): < 100 nM | IC50 [1]: 20 to 100 nM

Cc1ncnc(C(=O)N2CCN(c3c4n(c5nc(C6=CCOCC6)nn5c3=O)C(C(=O)Nc3ccc(C(F)(F)F)c5c3CCC5)CCC4)CC2)c1O (racemic) [Compound 28]
IC50 [1]: < 20 nM

O=C(Nc1ccc(C(F)(F)F)cc1Cl)C1CCCc2c(N3CCN(C(=O)c4ncccc4O)CC3)c(=O)n3nc(C4=CCOCC4)nc3n21 (single isomer, unassigned) [Compound 2-B]
IC50 (SW48 cells): < 100 nM | IC50 [2]: < 20 nM | IC50 [1]: < 20 nM

Cc1ncnc(C(=O)N2CCN(c3c4n(c5nc(C6=CCOCC6)nn5c3=O)C(C(=O)Nc3ccc(C(F)(F)F)nc3Cl)CCC4)CC2)c1O (single isomer, unassigned) [Compound 3-B]
IC50 [1]: < 20 nM

Cc1cc(C(F)(F)F)ccc1NC(=O)C1CCCc2c(N3CCN(C(=O)c4ncnc(C)c4O)CC3)c(=O)n3nc(C4=CCOCC4)nc3n21 (single isomer, unassigned) [Compound 5-B]
IC50 [1]: < 20 nM

Cc1ncnc(C(=O)N2CCN(c3c4n(c5nc(C6=CCOCC6)nn5c3=O)C(C(=O)Nc3ccc(C(F)(F)F)cc3Cl)CC4)CC2)c1O (single isomer, unassigned) [Compound 6-B]
IC50 [1]: < 20 nM

[2H]C1([2H])N(C(=O)c2ncnc(C)c2O)C([2H])([2H])C([2H])([2H])N(c2c3n(c4nc(C5=CCOCC5)nn4c2=O)C(C(=O)Nc2ccc(C(F)(F)F)cc2Cl)CCC3)C1([2H])[2H] (single isomer, unassigned) [Compound 7-B]
IC50 (SW48 cells): < 100 nM | IC50 [1]: < 20 nM

Cc1ncnc(C(=O)N2CC3(CCN(c4c5n(c6nc(C7=CCOCC7)nn6c4=O)C(C(=O)Nc4ccc(C(F)(F)F)cc4Cl)CCC5)CC3)C2)c1O (single isomer, unassigned) [Compound 14-B]
AUC(0-t) ([3]; in vivo): 24200 ng·h/mL | half-life ([3]; in vivo): 5.41 h

Cc1ncnc(C(=O)N2CCN(c3c4n(c5nc(C6=CCOCC6)nn5c3=O)C(C(=O)Nc3ccc(C(F)(F)F)cc3F)CCC4)CC2)c1O (single isomer, unassigned) [Compound 15-B]
IC50 [1]: < 20 nM

Cc1ncnc(C(=O)N2CCN(c3c4n(c5nc(C6=CCOCC6)nn5c3=O)C(C(=O)Nc3ccc(C(F)(F)F)cc3Cl)CCC4)[C@@H](C)C2)c1O (single isomer, unassigned) [Compound 26-A]
IC50 (SW48 cells): < 100 nM | IC50 (HT-29 cells): ≥ 10000 nM | IC50 [1]: < 20 nM

CCc1c(N2CCN(C(=O)c3ncnc(C)c3O)CC2)c(=O)n2nc(C3=CCOCC3)nc2n1CC(=O)Nc1ccc(C(F)(F)F)cc1Cl [HRO761, reference compound]
AUC(0-t) [4]: 10800 ng·h/mL | AUC(0-t) ([3]; male, Balb/c): 9210 ng·h/mL | half-life ([3]; male, Balb/c): 2.32 h | bioavailability ([3]; male, Balb/c, read-out: F (%)): 74.1%
